Columns and labels:
[1] = target: T1, Dictyostelium discoideum NDP kinase (Dd-NDPK), wild type (Dictyostelium discoideum, UniProt P22887); experiment: Pre-steady-state phosphotransfer, fluorescence stopped-flow; assay type: biochemical; conditions: catalytic efficiency of phosphotransfer, wt
T1 construct: made in house

[2] = target: T2, Dictyostelium discoideum NDP kinase inactive variant EI (H122G-F64W) (Dictyostelium discoideum, UniProt P22887, F64W/H122G); experiment: biochemical; assay type: binding
T2 construct: made in house
Method: (§1) The binding constants were determined at equilibrium by recording the increase in fluorescence (Schneider, 2000).
(§2) Analog binding affinity was measured using a variant of Dd-NDPK (EI) as described (Schneider, 2000). […] The mutation N119S was inserted in EI in order to measure the nucleotide affinity by fluorescence titration.
(§3) Altered bases as compared to the wild type sequence are underlined in bold. Sequences were checked by automatic sequencing. The mutant EI-N119S was obtained by mutation of the previously described F64W-H122G mutated NDP kinase (here called EI) (Schneider 2000).

[3] = target: T3, Dictyostelium discoideum NDP kinase inactive variant EI-N119S (H122G-F64W-N119S) (Dictyostelium discoideum, UniProt P22887, F64W/H122G/N119S); experiment: biochemical; assay type: binding; conditions: for increase of affinity by Ser (N119S): relative KD, EI versus EI-N119S
T3 construct: made in house
Method: as §1, §2, §3

[4] = target: T4, human NDP kinase A (NDPK-A, nm23-H1), wild type (Homo sapiens, UniProt P15531); experiment: Pre-steady-state phosphotransfer, fluorescence stopped-flow; assay type: biochemical; conditions: catalytic efficiency of phosphotransfer, NDPK-A, pre-steady state
T4 construct: made in house
Method: FIG. 3 depicts the catalytic efficiency of NDPK-A and mutants for nucleoside analogs. The rates of phosphorylation of pure recombinant NDP kinases (1 μM) were measured at the pre-steady state in a fluorescence stopped-flow with d4T-TP (10 to 80 μM). The catalytic efficiency (expressed in M^−1s^−1) was determined from the variation of the rate as a function of analog as shown in FIG. 2 (▾, NDPK-A, ♦ L55H, ● N115S, ▪ L55H-N115S).
The activity assays were performed at the pre-steady state level.
Wild type human NDPK-A and the mutants were expressed and purified according to Schneider et al., 2000, Mol Pharm. Recombinant wild type and mutant Dd-NDPK were obtained as described (Schneid, 1998a), except for N119Y NDP kinase which was partially purified by Q sepharose FF chromatography. Each protein was characterized by […] electrophoresis. The concentration of 17 kDa subunits of the enzyme was either determined by Bradford assay ([…]) or using an absorbance coefficient of ΔA^280=1.249 for a 1 mg/mL solution of human wild type and N115S NDPK-A, and =0.55 for wild type and mutant N119S, N119T Dd-NDP kinases, respectively.
As the diphosphate form of analogs were not always available, the triphosphate analogs were used to study phosphate transfer in reaction as in Scheme I. Experiments were performed with an Hi-Tech DX2 microvolume stopped-flow reaction (Schneider, 1998) at Aexc=296 nm (for Ado derivatives) or […] (for other nucleotides), 2 mm excitation slit and a 320 nm cutoff filter at the emission. After mixing NDPK (1 μM) and NTP or an analogTP (10-500 μM), the intrinsic protein fluorescence was recorded for 10-200 sec. In each experiment, 400 pairs of data were recorded, and the data from 3-4 identical experiments were averaged and fitted to a number of non-linear analytical equations using the software provided by Hi-Tech.
(§4) The data were analyzed using the reaction scheme: [drawing 1]
In both the forward and the reverse reactions, the product concentration remains very low, thus the product binding can be neglected, and the observed single step could be attributed to the phosphotransfer (Schneider, 1998). The rate of this observed single step is: [formula]
(§5) and reaches a limiting value (k+2) at NTP saturation. […] Therefore, catalytic efficiencies of phosphorylation (CEphos=k+2/(k−1/k+1)=k+2/KS) were measured, which are equivalent to second order constants and allow a reliable comparison of a variety of NDP kinase substrates.

[5] = target: T5, human NDP kinase A (NDPK-A) variant L55H (Homo sapiens, UniProt P15531, L55H); experiment: as above; assay type: biochemical
T5 construct: made in house; host or cells: E. coli

[6] = target: T6, Dictyostelium NDP Kinase wt (Dictyostelium discoideum, UniProt P22887); experiment: Pre-steady-state fluorescence stopped-flow phosphotransfer from nucleoside triphosphates, wild type Dd-NDPK; assay type: biochemical; conditions: average of three determinations
T6 construct: made in house
Method: as §1
After mixing NDPK (1 μM) and NTP or an analogTP (10-500 μM), the intrinsic protein fluorescence was recorded for 10-200 sec. In each experiment, 400 pairs of data were recorded, and the data from 3-4 identical experiments were averaged and fitted to a number of non-linear analytical equations using the software provided by Hi-Tech.
as §4
The rate of this observed single step is: [formula]
as §5

T3 sequence (P22887 whole entry F64W/N119S/H122G): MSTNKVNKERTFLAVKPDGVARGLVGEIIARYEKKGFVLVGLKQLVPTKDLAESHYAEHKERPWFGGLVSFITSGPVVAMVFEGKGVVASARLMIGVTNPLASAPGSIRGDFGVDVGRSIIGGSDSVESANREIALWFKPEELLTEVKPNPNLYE
T4 sequence (P15531 whole entry): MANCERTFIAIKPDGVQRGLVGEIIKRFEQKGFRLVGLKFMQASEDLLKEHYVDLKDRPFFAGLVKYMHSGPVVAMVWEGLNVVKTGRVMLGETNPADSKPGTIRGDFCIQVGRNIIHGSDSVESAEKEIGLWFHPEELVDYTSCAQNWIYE
T1 sequence (P22887 whole entry): as the sequence (P22887 whole entry F64W/N119S/H122G) above, with W64F, S119N, G122H counted along it
T5 sequence (P15531 whole entry L55H): as the sequence (P15531 whole entry) above, with L55H counted along it
T2 sequence (P22887 whole entry F64W/H122G): as the sequence (P22887 whole entry F64W/N119S/H122G) above, with S119N counted along it
T6 sequence (P22887 whole entry): as the sequence (P22887 whole entry F64W/N119S/H122G) above, with W64F, S119N, G122H counted along it

| SMILES | k2/Ks [1] [M⁻¹ s⁻¹] | Kd [2] [nM] | Kd [3] [nM] | increase of affinity by Ser (N119S) [3] [fold] | k2/Ks [4] [M⁻¹ s⁻¹] | k2/Ks ([5]; catalytic efficiency of phosphotransfer, L55H, pre-steady state) [M⁻¹ s⁻¹] | Specificity change (R) ([5]; ratio of catalytic efficiencies analog vs natural nucleotide, mutant vs wild type) | k2/Ks wt (catalytic efficiency of phosphotransfer) [6] [M⁻¹ s⁻¹] |
| --- | --- | --- | --- | --- | --- | --- | --- | --- |
| Cc1cn([C@H]2C[C@H](N=[N+]=[N-])[C@@H](COP(=O)(O)OP(=O)(O)OP(=O)(O)O)O2)c(=O)[nH]c1=O [AZT-TP] | 270 | 30000 | 2200 | 15 | 75 | 930 | (8) |  |
| Nc1nc2c(ncn2[C@H]2CC[C@@H](COP(=O)(O)OP(=O)(O)OP(=O)(O)O)O2)c(=O)[nH]1 [ddGTP, dideoxy-GTP] | 2300 | 3500 | 2000 | 2 | 190 |  |  | 2300 |
